Measurements published in BindingDB's records for patent US11547697 (Millennium Pharmaceuticals, 2023).

Tests used:
Assay in all cases: Inhibition Assay of PI3K
[1] = molecular target: Phosphatidylinositol 4,5-bisphosphate 3-kinase catalytic subunit gamma isoform (Homo sapiens, UniProt P48736)
[2] = molecular target: Phosphatidylinositol 4,5-bisphosphate 3-kinase catalytic subunit beta isoform (Homo sapiens, UniProt P42338)
[3] = molecular target: T1, Phosphatidylinositol 4,5-bisphosphate 3-kinase catalytic subunit delta isoform (Homo sapiens, UniProt O00329)
T1 sequence (O00329 whole entry): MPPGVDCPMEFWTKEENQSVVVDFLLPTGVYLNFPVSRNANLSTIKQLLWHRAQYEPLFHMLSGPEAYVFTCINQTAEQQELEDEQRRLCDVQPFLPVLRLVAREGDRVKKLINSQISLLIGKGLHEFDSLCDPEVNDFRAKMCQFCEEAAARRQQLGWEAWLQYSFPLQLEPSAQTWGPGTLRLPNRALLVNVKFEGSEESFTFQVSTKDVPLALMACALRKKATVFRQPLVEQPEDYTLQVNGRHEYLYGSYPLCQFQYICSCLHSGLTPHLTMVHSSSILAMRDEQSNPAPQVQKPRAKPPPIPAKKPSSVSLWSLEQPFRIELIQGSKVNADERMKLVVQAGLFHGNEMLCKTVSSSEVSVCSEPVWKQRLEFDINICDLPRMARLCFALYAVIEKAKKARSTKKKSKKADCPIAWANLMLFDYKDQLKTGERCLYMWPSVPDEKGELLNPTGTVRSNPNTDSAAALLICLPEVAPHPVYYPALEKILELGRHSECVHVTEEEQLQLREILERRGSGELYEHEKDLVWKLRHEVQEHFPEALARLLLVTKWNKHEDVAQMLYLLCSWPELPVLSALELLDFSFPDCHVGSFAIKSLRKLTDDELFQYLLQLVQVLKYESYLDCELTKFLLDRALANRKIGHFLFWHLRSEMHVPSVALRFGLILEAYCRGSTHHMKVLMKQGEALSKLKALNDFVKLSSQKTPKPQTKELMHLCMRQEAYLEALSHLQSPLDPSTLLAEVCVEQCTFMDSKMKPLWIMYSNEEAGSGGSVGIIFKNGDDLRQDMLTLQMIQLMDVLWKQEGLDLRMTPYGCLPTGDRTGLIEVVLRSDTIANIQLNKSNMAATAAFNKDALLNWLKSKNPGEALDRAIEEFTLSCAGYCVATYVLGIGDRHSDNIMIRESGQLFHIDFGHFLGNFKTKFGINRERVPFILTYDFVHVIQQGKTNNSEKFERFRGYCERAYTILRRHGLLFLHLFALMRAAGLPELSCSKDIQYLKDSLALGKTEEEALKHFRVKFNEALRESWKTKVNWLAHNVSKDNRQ

Chain of Phosphatidylinositol 4,5-bisphosphate 3-kinase catalytic subunit beta isoform (P42338 whole entry, canonical isoform): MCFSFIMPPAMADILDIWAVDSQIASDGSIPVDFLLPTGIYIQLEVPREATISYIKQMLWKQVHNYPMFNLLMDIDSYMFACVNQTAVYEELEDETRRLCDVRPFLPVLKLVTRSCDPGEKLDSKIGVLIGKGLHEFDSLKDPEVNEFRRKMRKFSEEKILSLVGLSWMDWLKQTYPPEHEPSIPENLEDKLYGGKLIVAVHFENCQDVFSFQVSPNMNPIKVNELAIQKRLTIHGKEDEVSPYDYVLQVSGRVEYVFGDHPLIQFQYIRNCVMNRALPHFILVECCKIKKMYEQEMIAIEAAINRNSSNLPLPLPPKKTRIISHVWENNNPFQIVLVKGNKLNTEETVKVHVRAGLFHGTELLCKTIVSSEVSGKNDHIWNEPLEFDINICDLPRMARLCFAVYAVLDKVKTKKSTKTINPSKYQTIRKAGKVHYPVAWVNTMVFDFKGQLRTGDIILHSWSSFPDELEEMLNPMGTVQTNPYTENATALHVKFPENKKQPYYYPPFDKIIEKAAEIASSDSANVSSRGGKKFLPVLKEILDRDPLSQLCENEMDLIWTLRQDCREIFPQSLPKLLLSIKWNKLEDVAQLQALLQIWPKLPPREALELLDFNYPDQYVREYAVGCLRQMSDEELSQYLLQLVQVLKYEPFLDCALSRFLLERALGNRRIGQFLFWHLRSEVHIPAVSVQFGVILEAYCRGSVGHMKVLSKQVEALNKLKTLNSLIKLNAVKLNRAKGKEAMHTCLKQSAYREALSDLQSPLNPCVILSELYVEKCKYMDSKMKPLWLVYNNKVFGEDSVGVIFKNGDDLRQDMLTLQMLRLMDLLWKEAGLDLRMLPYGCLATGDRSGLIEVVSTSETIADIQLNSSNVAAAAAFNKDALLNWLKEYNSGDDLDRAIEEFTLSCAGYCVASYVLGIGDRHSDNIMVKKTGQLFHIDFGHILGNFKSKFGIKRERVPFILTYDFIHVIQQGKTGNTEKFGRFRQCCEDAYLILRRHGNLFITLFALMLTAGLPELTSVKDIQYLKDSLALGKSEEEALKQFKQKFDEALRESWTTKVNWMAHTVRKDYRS
Chain of Phosphatidylinositol 4,5-bisphosphate 3-kinase catalytic subunit gamma isoform (P48736 whole entry, canonical isoform): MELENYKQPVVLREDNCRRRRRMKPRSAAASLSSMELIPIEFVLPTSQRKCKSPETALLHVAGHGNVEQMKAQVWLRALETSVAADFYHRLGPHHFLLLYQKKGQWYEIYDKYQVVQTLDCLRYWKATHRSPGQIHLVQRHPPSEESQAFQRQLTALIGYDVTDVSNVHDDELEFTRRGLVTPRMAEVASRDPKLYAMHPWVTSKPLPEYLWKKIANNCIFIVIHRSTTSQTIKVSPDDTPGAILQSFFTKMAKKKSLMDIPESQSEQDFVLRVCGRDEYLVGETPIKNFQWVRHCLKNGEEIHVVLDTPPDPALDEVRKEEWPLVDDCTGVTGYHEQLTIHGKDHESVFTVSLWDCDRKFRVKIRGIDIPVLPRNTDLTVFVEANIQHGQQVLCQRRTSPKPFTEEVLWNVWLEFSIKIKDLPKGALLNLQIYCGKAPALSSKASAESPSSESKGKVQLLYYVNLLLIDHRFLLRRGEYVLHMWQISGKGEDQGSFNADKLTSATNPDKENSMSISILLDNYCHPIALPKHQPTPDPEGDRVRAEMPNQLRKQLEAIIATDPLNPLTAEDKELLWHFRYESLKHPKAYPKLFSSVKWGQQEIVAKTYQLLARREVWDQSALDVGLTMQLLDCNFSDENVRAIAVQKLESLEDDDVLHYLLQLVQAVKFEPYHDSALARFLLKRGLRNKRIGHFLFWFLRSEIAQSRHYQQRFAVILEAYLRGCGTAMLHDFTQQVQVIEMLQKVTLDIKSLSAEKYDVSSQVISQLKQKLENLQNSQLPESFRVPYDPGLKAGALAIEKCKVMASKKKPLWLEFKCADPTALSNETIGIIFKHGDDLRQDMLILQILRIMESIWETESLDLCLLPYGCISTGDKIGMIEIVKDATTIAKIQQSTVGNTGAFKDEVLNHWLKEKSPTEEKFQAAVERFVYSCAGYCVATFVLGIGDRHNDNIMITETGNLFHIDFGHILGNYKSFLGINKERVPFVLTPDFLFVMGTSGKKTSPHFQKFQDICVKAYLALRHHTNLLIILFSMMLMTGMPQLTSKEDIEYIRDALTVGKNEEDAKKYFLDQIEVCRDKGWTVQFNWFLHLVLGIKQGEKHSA

Structure (SMILES): CN1CCC(n2cnc3ccc(-c4ccc5oc(N)nc5c4)cc3c2=O)CC1 [US11547697, Compound 36]
- IC50 [1]: > 10 µM

Structure (SMILES): Nc1nc2cc(-c3ccc4ncn(C5CCOCC5)c4c3)ccc2o1 [US11547697, Compound 48]
- IC50 [2]: > 10 µM
- IC50 [1]: > 10 µM
- IC50 [3]: > 10 µM

Structure (SMILES): Nc1nc2cc(-c3ccc4ncn(C5CCOCC5)c(=O)c4c3)ccc2o1 [US11547697, Compound 55]
- IC50 [1]: > 10 µM
- IC50 [3]: > 10 µM

Structure (SMILES): CC(=O)N1CCC(n2cnc3ccc(-c4ccc5oc(N)nc5c4)cc3c2=O)CC1 [US11547697, Compound 66]
- IC50 [1]: > 10 µM
- IC50 [3]: > 10 µM

Structure (SMILES): CCN1CCC(n2cnc3ccc(-c4ccc5oc(N)nc5c4)cc3c2=O)CC1 [US11547697, Compound 73]
- IC50 [1]: > 10 µM
- IC50 [3]: > 10 µM

Structure (SMILES): Nc1nc2cc(-c3ccc4ncc(C(=O)N5CCNCC5)n4c3)ccc2o1 [US11547697, Compound 111]
- IC50 [1]: > 10 µM
- IC50 [3]: > 10 µM

Structure (SMILES): CNC(=O)CN1CCN(c2cnc3ccc(-c4ccc5oc(N)nc5c4)cc3n2)CC1 [US11547697, Compound 120]
- IC50 [1]: > 10 µM

Structure (SMILES): CN1CCCN(C(=O)c2cnc3ccc(-c4ccc5oc(N)nc5c4)cn23)CC1 [US11547697, Compound 140]
- IC50 [1]: > 10 µM
- IC50 [3]: > 10 µM

Structure (SMILES): Nc1nc2cc(-c3ccc4ncc(C(=O)NC5CCC(O)CC5)n4c3)ccc2o1 (stereo not drawn) [US11547697, Compound 143]
- IC50 [1]: < 0.1 µM

Structure (SMILES): CN1CCN(C(=O)c2cnc3ccc(-c4ccc5sc(N)nc5c4)cn23)CC1 [US11547697, Compound 144]
- IC50 [1]: > 10 µM
- IC50 [3]: > 10 µM

Structure (SMILES): CN1CCN(C(=O)c2cnc3ccc(-c4ccc5nc(N)sc5c4)cn23)CC1 [US11547697, Compound 146]
- IC50 [1]: > 10 µM
- IC50 [3]: > 10 µM

Structure (SMILES): CC(C)N1CCN(C(=O)c2cnc3ccc(-c4ccc5oc(N)nc5c4)cn23)CC1 [US11547697, Compound 160]
- IC50 [1]: > 10 µM
- IC50 [3]: > 10 µM

Structure (SMILES): CN1CCC(N(C)C(=O)c2cnc3ccc(-c4ccc5oc(N)nc5c4)cn23)CC1 [US11547697, Compound 165]
- IC50 [1]: > 10 µM

Structure (SMILES): Nc1nc2cc(-c3ccc4ncc(N5CCC(N)CC5)nc4c3)ccc2o1 [US11547697, Compound 168]
- IC50 [1]: > 10 µM

Structure (SMILES): Nc1nc2cc(-c3ccc4ncc(C(=O)N5CCC(N)CC5)n4c3)ccc2o1 [US11547697, Compound 204]
- IC50 [1]: > 10 µM
- IC50 [3]: > 10 µM

Structure (SMILES): CC(C)(N)C(=O)N1CCN(c2cnc3ccc(-c4ccc5oc(N)nc5c4)cc3n2)CC1 [US11547697, Compound 213]
- IC50 [1]: > 10 µM

Structure (SMILES): Nc1nc2cc(-c3ccc4ncn(CCCN5CCCC5)c(=O)c4c3)ccc2o1 [US11547697, Compound 271]
- IC50 [1]: > 10 µM

Structure (SMILES): CCN(CC)CCCn1cnc2ccc(-c3ccc4oc(N)nc4c3)cc2c1=O [US11547697, Compound 281]
- IC50 [2]: > 10 µM
- IC50 [1]: > 10 µM

Structure (SMILES): Nc1nc2cc(-c3ccc4ncc(C(=O)NCCN5CCCC5)n4c3)ccc2o1 [US11547697, Compound 296]
- IC50 [1]: > 10 µM

Structure (SMILES): Nc1nc2cc(-c3ccc4nnc(-c5cccnc5)n4c3)ccc2o1 [US11547697, Compound 300]
- IC50 [1]: > 10 µM
- IC50 [3]: > 10 µM

Structure (SMILES): Nc1nc2ccc(-c3ccc4nnc(-c5cccnc5)n4c3)cc2o1 [US11547697, Compound 301]
- IC50 [1]: > 10 µM
- IC50 [3]: > 10 µM

Structure (SMILES): CN1CCN(C2CN(C(=O)c3cnc4ccc(-c5ccc6oc(N)nc6c5)cn34)C2)CC1 [US11547697, Compound 303]
- IC50 [2]: > 10 µM
- IC50 [1]: > 10 µM

Structure (SMILES): C[C@H]1CN(c2cnc3ccc(-c4ccc5sc(N)nc5c4)cc3n2)CCN1 [US11547697, Compound 307]
- IC50 [1]: > 10 µM
- IC50 [3]: > 10 µM

Structure (SMILES): COC(=O)N1CCC(n2ncc3c(N4CCOCC4)nc(-c4ccc5oc(N)nc5c4)nc32)CC1 [US11547697, Compound 330]
- IC50 [1]: > 10 µM
- IC50 [3]: > 10 µM

Structure (SMILES): Nc1nc2cc(-c3ccc4ncc(N5CC(N6CCN(CC7CC7)CC6)C5)nc4c3)ccc2o1 [US11547697, Compound 335]
- IC50 [1]: > 10 µM

Structure (SMILES): CC1(C)CN(c2cnc3ccc(-c4ccc5oc(N)nc5c4)cc3n2)CCN1 [US11547697, Compound 336]
- IC50 [1]: > 10 µM

Structure (SMILES): C[C@H]1CN(C2CN(c3cnc4ccc(-c5ccc6oc(N)nc6c5)cc4n3)C2)CCN1 [US11547697, Compound 350]
- IC50 [1]: > 10 µM

Structure (SMILES): Cc1cc2oc(N)nc2cc1-c1ccc2ncc(N3CCN[C@@H](C)C3)nc2c1 [US11547697, Compound 351]
- IC50 [1]: > 10 µM
- IC50 [3]: > 10 µM

Structure (SMILES): Nc1nc2cc(-c3ccc4ncc(N5CC(N6CCOCC6)C5)nc4c3)c(Cl)cc2o1 [US11547697, Compound 371]
- IC50 [1]: > 10 µM
- IC50 [3]: > 10 µM

Structure (SMILES): Cc1c(-c2ccc3oc(N)nc3c2)ccc2ncc(N3CCN[C@@H](C)C3)nc12 [US11547697, Compound 374]
- IC50 [1]: > 10 µM

Structure (SMILES): CN1CCN([C@@H]2CCN(c3cnc4ccc(-c5ccc6oc(N)nc6c5)cc4n3)C2)CC1 [US11547697, Compound 379]
- IC50 [1]: > 10 µM

Structure (SMILES): CN1CCC(c2cnc3ccc(-c4ccc5oc(N)nc5c4)cc3n2)CC1 [US11547697, Compound 385]
- IC50 [1]: > 10 µM
- IC50 [3]: > 10 µM

Structure (SMILES): Cc1c(-c2ccc3oc(N)nc3c2)ccc2ncc(N3CC(N4CCNCC4)C3)nc12 [US11547697, Compound 386]
- IC50 [2]: > 10 µM
- IC50 [3]: > 10 µM

Structure (SMILES): Nc1nc2cc(-c3ccc4ncc(N5CCNCC5=O)nc4c3)ccc2o1 [US11547697, Compound 389]
- IC50 [2]: > 10 µM
- IC50 [3]: > 10 µM

Structure (SMILES): Nc1nc2cc(-c3ccc4ncc(N5CCN(CC(F)(F)F)CC5)nc4c3)ccc2o1 [US11547697, Compound 395]
- IC50 [2]: > 10 µM
- IC50 [3]: > 10 µM

Structure (SMILES): CNc1nc2cc(-c3ccc4ncc(C(=O)N5CCOCC5)n4c3)ccc2o1 [US11547697, Compound 406]
- IC50 [1]: > 10 µM
- IC50 [3]: > 10 µM

Structure (SMILES): Cc1cc(-c2ccc3oc(N)nc3c2)cn2c(C(=O)N3CCOCC3)cnc12 [US11547697, Compound 448]
- IC50 [2]: > 10 µM
- IC50 [3]: > 10 µM

Structure (SMILES): O=C(c1cnc2ccc(-c3cccc(NS(=O)(=O)c4ccccc4)c3)cn12)N1CCOCC1 [US11547697, Compound 453]
- IC50 [2]: > 10 µM
- IC50 [3]: > 10 µM

Structure (SMILES): COc1ccc(-c2ccc3ncc(C(=O)N4CCOCC4)n3c2)cc1NS(=O)(=O)c1ccccc1 [US11547697, Compound 455]
- IC50 [2]: > 10 µM
- IC50 [3]: > 10 µM

Structure (SMILES): O=C(c1cnc2ccc(-c3ccc(Cl)c(NS(=O)(=O)c4ccccc4)c3)cn12)N1CCOCC1 [US11547697, Compound 459]
- IC50 [2]: > 10 µM
- IC50 [3]: > 10 µM

Structure (SMILES): CO[C@@H]1CCN(C(=O)c2cnc3ccc(-c4ccc5oc(N)nc5c4)cn23)C1 [US11547697, Compound 464]
- IC50 [2]: > 10 µM
- IC50 [3]: > 10 µM

Structure (SMILES): Nc1nc2cc(-c3ccc4ncc(C(=O)N5CC[C@H](N6CCOCC6)C5)n4c3)ccc2o1 [US11547697, Compound 465]
- IC50 [2]: > 10 µM
- IC50 [3]: > 10 µM

Structure (SMILES): Nc1nc2cc(-c3ccc4ncc(C(=O)N5CCC(F)(F)C5)n4c3)ccc2o1 [US11547697, Compound 471]
- IC50 [2]: > 10 µM
- IC50 [3]: > 10 µM

Structure (SMILES): Nc1nc2cc(-c3ccc4ncc(C(=O)N5CC(F)(F)C5)n4c3)ccc2o1 [US11547697, Compound 473]
- IC50 [2]: > 10 µM
- IC50 [3]: > 10 µM

Structure (SMILES): Nc1nc2cc(-c3ccc4ncc(C(=O)N5CC[C@H](F)C5)n4c3)ccc2o1 [US11547697, Compound 476]
- IC50 [2]: > 10 µM
- IC50 [3]: > 10 µM

Structure (SMILES): CNc1noc2cc(-c3ccc4ncc(C(=O)N5CCOCC5)n4c3)ccc12 [US11547697, Compound 486]
- IC50 [2]: > 10 µM
- IC50 [3]: > 10 µM

Structure (SMILES): Nc1nc2cc(-c3ccc4ncc(C(=O)N5CCC(N6CC(F)(F)C6)C5)n4c3)ccc2o1 (stereo not drawn) [US11547697, Compound 498]
- IC50 [2]: > 10 µM
- IC50 [3]: > 10 µM

Structure (SMILES): Nc1nc2cc(-c3ccc4ncc(C(=O)N5CCC6(C5)OCCO6)n4c3)ccc2o1 [US11547697, Compound 499]
- IC50 [2]: > 10 µM
- IC50 [3]: > 10 µM

Structure (SMILES): Nc1nc2cc(-c3ccc4ncc(C(=O)N5CCC(F)(F)CC5)n4c3)ccc2o1 [US11547697, Compound 501]
- IC50 [2]: > 10 µM
- IC50 [3]: > 10 µM

Structure (SMILES): Nc1nc2cc(-c3ccc4ncc(C(=O)N5CCC(F)CC5)n4c3)ccc2o1 [US11547697, Compound 503]
- IC50 [2]: > 10 µM
- IC50 [3]: > 10 µM

Structure (SMILES): CC1(C)CN(C(=O)c2cnc3ccc(-c4ccc5oc(N)nc5c4)cn23)CCO1 [US11547697, Compound 513]
- IC50 [2]: > 10 µM
- IC50 [3]: > 10 µM

Structure (SMILES): CN1CCC(n2cnc3ccc(-c4cnc(Cl)c(NS(C)(=O)=O)c4)cc3c2=O)CC1 [US11547697, Compound 526]
- IC50 [1]: > 10 µM

Structure (SMILES): CN1CC(n2cnc3ccc(-c4ccc5oc(N)nc5c4)cc3c2=O)C1 [US11547697, Compound 528]
- IC50 [1]: > 10 µM
- IC50 [3]: > 10 µM
